# Measurements taken from patent publication US10144706B2 (BRISTOL-MYERS SQUIBB COMPANY, priority 2016, dated 2018).
# Biological target: T1, PD-1/PD-L1 interaction (PD-1-Ig / PD-L1-His) (Homo sapiens, UniProt Q9NZQ7)
# T1 construct: hPDL1(18-239)-TVMV-His; TVMV protease site linker (C); made in house; host or cells: HEK293T
# Experiment: PD-1/PD-L1 Homogenous Time-Resolved Fluorescence (HTRF) binding assay
# Settings: IC50 range class; PD-L1-His 10 nM, PD-1-Ig 20 nM; read-out: Range or IC50
# How it was run: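 HTRF detection used 1 nM europium-cryptate anti-Ig and 20 nM APC anti-His. Compounds first saw 10 nM PD-L1-His for 15 min, and 20 nM PD-1-Ig was then added for another 15 min. Buffer was dPBS plus 0.1% BSA and 0.05% Tween-20. All concentrations are final.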
# T1 sequence (Q9NZQ7 with tags, fused parts or gaps): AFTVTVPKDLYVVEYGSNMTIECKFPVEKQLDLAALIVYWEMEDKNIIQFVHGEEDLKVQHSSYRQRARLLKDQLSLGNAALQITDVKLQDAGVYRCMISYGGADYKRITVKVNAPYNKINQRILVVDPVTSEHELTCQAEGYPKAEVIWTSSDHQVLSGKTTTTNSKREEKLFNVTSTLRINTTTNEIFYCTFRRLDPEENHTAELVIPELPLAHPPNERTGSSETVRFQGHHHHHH
row,SMILES,IC50 [nM]
1,Cc1c(COc2cc(OCc3cncc(C#N)c3)c(CNC(Cc3ccccc3)C(=O)O)cc2Cl)cccc1-c1cccc(COc2cc(OCc3cncc(C#N)c3)c(CNC(Cc3ccccc3)C(=O)O)cc2Cl)c1C (centres unmarked) [Example 40480],0.04 to 20
2,"Cc1c(OCCCN2CC[C@@H](O)C2)cccc1-c1cccc(S(=O)(=O)NCCN2CC[C@@H](O)C2)c1C [Example 3016, N-(2-((R)-3-hydroxypyrrolidin-1-yl)ethyl)-3′-(3-((R)-3-hydroxypyrrolidin-1-yl)propoxy)-2,2′-dimethyl-[1,1′-biphenyl]-3-sulfonamide]",> 10000
3,"CC(=O)NCCNCCCOc1cccc(-c2cccc(OCCCN3CC[C@@H](O)C3)c2C)c1C [Example 2048, (R)—N-(2-((3-((3′-(3-(3-hydroxypyrrolidin-1-yl)propoxy)-2,2′-dimethyl-[1,1′-biphenyl]-3-yl)oxy)propyl)amino)ethyl)acetamide]",20.1 to 90
4,"Cc1c(OCCCN2C[C@H](O)C[C@H]2C(=O)O)cccc1-c1cccc(OCCCN2C[C@H](O)C[C@H]2C(=O)O)c1Cl [Example 1003, (2S,2′S,4R,4′R)-1,1′-(((2-chloro-2′-methyl-[1,1′-biphenyl]-3,3′-diyl)bis(oxy))bis(propane-3,1-diyl))bis(4-hydroxypyrrolidine-2-carboxylic acid)]",> 10000
5,Cc1c(COc2cc(OCc3cncc(C#N)c3)c(CNC(C(=O)O)C(C)O)cc2Cl)cccc1-c1cccc(COc2cc(OCc3cncc(C#N)c3)c(CNC(C(=O)O)C(C)O)cc2Cl)c1C (centres unmarked) [Example 40100],0.04 to 20
6,"Cc1c(OCCCN(C)CC(O)CO)cccc1-c1cccc(OCCCN2CC[C@@H](O)C2)c1C (mixture of isomers) [Example 2015, 3-((3-((3′-(3-((R)-3-hydroxypyrrolidin-1-yl)propoxy)-2,2′-dimethyl-[1,1′-biphenyl]-3-yl)oxy)propyl)(methyl)amino)propane-1,2-diol]",20.1 to 90
7,"Cc1cc(OCc2cccc(-c3cccc(COc4cc(C)c(CNC(C)(CO)CO)cc4C)c3C)c2C)c(C)cc1CNC(C)(CO)CO [Example 5001, 2,2′-((((((2,2′-dimethyl-[1,1′-biphenyl]-3,3′-diyl)bis(methylene))bis(oxy))bis(2,5-dimethyl-4,1-phenylene))bis(methylene))bis(azanediyl))bis(2-methylpropane-1,3-diol)]",0.04 to 20
8,Cc1c(COc2cc(OCc3cncc(C#N)c3)c(CO)cc2Cl)cccc1-c1cccc(COc2cc(OCc3cncc(C#N)c3)c(CN[C@@H](CCO)C(=O)O)cc2Cl)c1C [Example 50360],0.04 to 20
9,N#Cc1cncc(COc2cc(OCc3cccc(-c4cccc(COc5cc(OCc6cncc(C#N)c6)c(CN[C@@H](CCO)C(=O)O)cc5Cl)c4Cl)c3Cl)c(Cl)cc2CN[C@@H](CCO)C(=O)O)c1 [Example 40190],0.04 to 20
10,CC(=O)c1cc(Cl)c(OCc2cccc(-c3cccc(COc4cc(OCc5cncc(C#N)c5)c(CN[C@H](C(=O)O)[C@@H](C)[C@H](C)O)cc4Cl)c3C)c2C)cc1OCc1cncc(C#N)c1 [Example 60050],0.04 to 20
11,CC(=O)c1cc(Cl)c(OCc2cccc(-c3cccc(COc4cc(OCc5cncc(C#N)c5)c(CN[C@](C)(CO)C(=O)O)cc4Cl)c3Cl)c2Cl)cc1OCc1cncc(C#N)c1 [Example 60040],0.04 to 20
12,Cc1c(COc2cc(OCc3cncc(C#N)c3)c(CN[C@@H](Cc3c[nH]c4ccccc34)C(=O)O)cc2Cl)cccc1-c1cccc(COc2cc(OCc3cncc(C#N)c3)c(CN[C@@H](Cc3c[nH]c4ccccc34)C(=O)O)cc2Cl)c1C [Example 40700],0.04 to 20
13,"Cc1c(COc2cc(OCc3cc(F)cc(F)c3)c(CN[C@@](C)(CO)C(=O)O)cc2Cl)cccc1-c1cccc(COc2cc(OCc3cc(F)cc(F)c3)c(CN[C@@](C)(CO)C(=O)O)cc2Cl)c1C [Example 5009, (2S,2′S)-2,2′-((((((2,2′-dimethyl-[1,1′-biphenyl]-3,3′-diyl)bis(methylene))bis(oxy))bis(5-chloro-2-((3,5-difluorobenzyl)oxy)-4,1-phenylene))bis(methylene))bis(azanediyl))bis(3-hydroxy-2-methylpropanoic acid)]",0.04 to 20
14,"Cc1c(OCCCNC[C@H](O)CO)cccc1-c1cccc(OCCCN2CCC[C@H](C(=O)O)C2)c1C [Example 2081, (S)-1-(3-((3′-(3-(((S)-2,3-dihydroxypropyl)amino)propoxy)-2,2′-dimethyl-[1,1′-biphenyl]-3-yl)oxy)propyl)piperidine-3-carboxylic acid]",20.1 to 90
15,Cc1c(COc2cc(OCc3cncc(C#N)c3)c(C(=O)NCc3ccncn3)cc2Cl)cccc1-c1cccc(COc2cc(OCc3cncc(C#N)c3)c(C(=O)NCc3ccncn3)cc2Cl)c1C [Example 80090],90.1 to 1000
16,Cc1c(OCCCN2CC[C@@H](O)C2)cccc1-c1cccc(OCc2cncc(C#N)c2)c1C [Example 3011],20.1 to 90
17,Cc1c(COc2cc(OCc3cncc(C#N)c3)c(Cl)cc2Cl)cccc1-c1cccc(COc2cc(OCc3cncc(C#N)c3)c(CN[C@@](C)(CO)C(=O)O)cc2Cl)c1C [Example 70060],20.1 to 90
18,"Cc1c(COc2cc(OCc3ccc(-n4cccn4)nc3)c(CN[C@H](C(=O)O)[C@@H](C)O)cc2Cl)cccc1-c1cccc(COc2cc(OCc3ccc(-n4cccn4)nc3)c(CN[C@H](C(=O)O)[C@@H](C)O)cc2Cl)c1C [Example 5018, (2S,2′S,3R,3′R)-2,2′-((((((2,2′-dimethyl-[1,1′-biphenyl]-3,3′-diyl)bis(methylene))bis(oxy))bis(2-((6-(1H-pyrazol-1-yl)pyridin-3-yl)methoxy)-5-chloro-4,1-phenylene))bis(methylene))bis(azanediyl))bis(3-hydroxybutanoic acid)]",0.04 to 20
19,"Cc1c(COc2cc(OCc3cc(F)cc(F)c3)c(CN(C)[C@@H](CC(C)C)C(=O)O)cc2Cl)cccc1-c1cccc(COc2cc(OCc3cc(F)cc(F)c3)c(CN(C)[C@@H](CC(C)C)C(=O)O)cc2Cl)c1C [Example 5017, (2S,2′S)-2,2′-((((((2,2′-dimethyl-[1,1′-biphenyl]-3,3′-diyl)bis(methylene))bis(oxy))bis(5-chloro-2-((3,5-difluorobenzyl)oxy)-4,1-phenylene))bis(methylene))bis(methylazanediyl))bis(4-methylpentanoic acid)]",0.04 to 20
20,Cc1c(COc2cc(OCc3cncc(C#N)c3)c(CO)cc2Cl)cccc1-c1cccc(COc2cc(OCc3cncc(C#N)c3)c(CNC(CO)(Cc3ccccc3)C(=O)O)cc2Cl)c1C (centres unmarked) [Example 50060],0.04 to 20
21,CC(=O)c1cc(Cl)c(OCc2cccc(-c3cccc(COc4cc(OCc5cncc(C#N)c5)c(CN[C@H](C(=O)O)[C@@H](C)O)cc4Cl)c3C)c2C)cc1OCc1cncc(C#N)c1 [Example 60020],0.04 to 20
22,"Cc1c(OCCCNCCc2ccccc2)cccc1-c1cccc(OCCCN2CC[C@@H](O)C2)c1C [Example 2041, (R)-1-(3-((2,2′-dimethyl-3′-(3-(phenethylamino)propoxy)-[1,1′-biphenyl]-3-yl)oxy)propyl)pyrrolidin-3-ol]",90.1 to 1000
23,"Cc1c(OCCCNCCCn2ccnc2)cccc1-c1cccc(OCCCN2CC[C@@H](O)C2)c1C [Example 2020, (R)-1-(3-((3′-(3-((3-(1H-imidazol-1-yl)propyl)amino)propoxy)-2,2′-dimethyl-[1,1′-biphenyl]-3-yl)oxy)propyl)pyrrolidin-3-ol]",0.04 to 20
24,"Cc1c(OCCCN2CC[C@@H](O)C2)cccc1-c1cccc(OCCCN2CC[C@H](CO)[C@H](O)C2)c1C [Example 2033, (3S,4R)-4-(hydroxymethyl)-1-(3-((3′-(3-((R)-3-hydroxypyrrolidin-1-yl)propoxy)-2,2′-dimethyl-[1,1′-biphenyl]-3-yl)oxy)propyl)piperidin-3-ol]",0.04 to 20
25,COC(=O)[C@@H](NCc1cc(Cl)c(OCc2cccc(-c3cccc(COc4cc(OCc5cncc(C#N)c5)c(CN[C@H](C(=O)OC)[C@H](C)O)cc4Cl)c3C)c2C)cc1OCc1cncc(C#N)c1)[C@H](C)O [Example 40900],1000 to 10000
26,Cc1c(COc2cc(OCc3cncc(C#N)c3)c(CN[C@@H](C(=O)O)[C@H](C)O)cc2Cl)cccc1-c1cccc(COc2cc(OCc3cncc(C#N)c3)c(CN[C@@H](C(=O)O)[C@@H](C)O)cc2Cl)c1C [Example 41130],0.04 to 20
27,"Cc1c(OCCCN2CC[C@@H](O)C2)cccc1-c1cccc(OCCCc2ccccc2)c1 [Example 3027, (R)-1-(3-((2-methyl-3′-(3-phenylpropoxy)-[1,1′-biphenyl]-3-yl)oxy)propyl)pyrrolidin-3-ol]",1000 to 10000
28,Cc1c(OCCCNCCc2ncn(C)c2Cl)cccc1-c1cccc(OCCCN2CC[C@@H](O)C2)c1C [Example 2061],20.1 to 90
29,Cc1c(COc2cc(OCc3cncc(C#N)c3)c(Cl)cc2Cl)cccc1-c1cccc(COc2cc(OCc3cncc(C#N)c3)c(CN[C@](C)(CO)C(=O)O)cc2Cl)c1C [Example 70020],0.04 to 20
30,N#Cc1cncc(COc2cc(OCc3cccc(-c4cccc(COc5cc(OCc6cncc(C#N)c6)c(C(=O)NCCO)cc5Cl)c4Cl)c3Cl)c(Cl)cc2C(=O)O)c1 [Example 90010],0.04 to 20

# Same assay, conditions: numeric IC50; PD-L1-His 10 nM, PD-1-Ig 20 nM; read-out: Range or IC50
row,SMILES,IC50 [nM]
1,COC(=O)[C@@H](NCc1cc(Cl)c(OCc2cccc(-c3cccc(COc4cc(OCc5cncc(C#N)c5)c(CN[C@H](C(=O)OC)[C@@H](C)OC(C)(C)C)cc4Cl)c3C)c2C)cc1OCc1cncc(C#N)c1)[C@@H](C)OC(C)(C)C [Example 40950],168
2,"O=C(O)C[C@@H](O)C(=O)NCCCOc1cccc(-c2cccc(OCCCNC(=O)[C@H](O)CC(=O)O)c2Cl)c1Cl [Example 2136, (3R,3′R)-4,4′-((((2,2′-dichloro-[1,1′-biphenyl]-3,3′-diyl)bis(oxy))bis(propane-3,1-diyl))bis(azanediyl))bis(3-hydroxy-4-oxobutanoic acid)]",3450
